Assay results: US11661426B2, “Imidazole-containing inhibitors of ALK2 kinase” (BioCryst Pharmaceuticals, Inc., priority 2017, dated 2023)

molecular target: ALK2 (Homo sapiens (Human), UniProt Q04771); test: ALK2 inhibition, LanthaScreen Eu Kinase Binding Assay (ThermoFisher Scientific / Life Technologies); conditions: read-out: Measured Ki (IC50) Value for Compounds: IC50
Description: Biochemical assays to measure the inhibitory effects of the compounds were performed by ThermoFisher Scientific (Life Technologies). ALK2 inhibition was tested using LanthaScreen™ Eu Kinase Binding Assay screening protocol.

ALK2, sequence (Q04771 21-509): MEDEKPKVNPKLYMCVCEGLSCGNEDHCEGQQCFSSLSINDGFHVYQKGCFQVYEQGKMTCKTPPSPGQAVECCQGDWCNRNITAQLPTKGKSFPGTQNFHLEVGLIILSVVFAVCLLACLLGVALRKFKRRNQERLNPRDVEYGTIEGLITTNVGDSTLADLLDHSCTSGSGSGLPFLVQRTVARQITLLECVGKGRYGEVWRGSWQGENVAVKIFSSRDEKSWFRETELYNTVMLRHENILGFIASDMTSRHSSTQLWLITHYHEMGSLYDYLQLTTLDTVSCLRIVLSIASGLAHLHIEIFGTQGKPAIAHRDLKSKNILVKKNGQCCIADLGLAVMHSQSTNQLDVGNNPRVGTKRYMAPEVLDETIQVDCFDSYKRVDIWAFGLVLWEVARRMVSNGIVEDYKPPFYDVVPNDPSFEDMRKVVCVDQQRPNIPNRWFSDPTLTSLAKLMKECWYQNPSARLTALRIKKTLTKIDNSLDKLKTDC

Row | SMILES | IC50 [nM]
1 | COc1cc(-n2cnc(Nc3ncc4ccccc4n3)c2)cc(OC)c1OC [Compound 198b, N-(1-(3,4,5-trimethoxyphenyl)-1H-imidazol-4-yl)quinazolin-2-amine] | 100 to 1000
2 | COc1cc(-n2cnc(Nc3nc(N4CCCC4)c4c(ccn4S(=O)(=O)c4ccc(C)cc4)n3)c2)cc(OC)c1OC [Compound 199b, 4-(pyrrolidin-1-yl)-5-tosyl-N-(1-(3,4,5-trimethoxyphenyl)-1H-imidazol-4-yl)-5H-pyrrolo[3,2-d]pyrimidin-2-amine] | > 1000
3 | COc1cc(-n2cnc(Nc3nc(N4CCC[C@H]4C(N)=O)c4cccnc4n3)c2)cc(OC)c1OC [Compound 203b, (S)-1-(2-((1-(3,4,5-trimethoxyphenyl)-1H-imidazol-4-yl)amino)pyrido[2,3-d]pyrimidin-4-yl)pyrrolidine-2-carboxamide] | 100 to 1000
4 | COc1cc(-n2cnc(Nc3nc(N4CCC[C@H]4C(N)=O)c4ccccc4n3)c2)cc(OC)c1OC [Compound 204b, (S)-1-(2-((1-(3,4,5-trimethoxyphenyl)-1H-imidazol-4-yl)amino)quinazolin-4-yl)pyrrolidine-2-carboxamide] | 100 to 1000
5 | COc1cc(-n2cnc(Nc3nc(N4CCC[C@H]4C(N)=O)c4cccc(OC(C)C)c4n3)c2)cc(OC)c1OC [Compound 205b, (S)-1-(8-isopropoxy-2-((1-(3,4,5-trimethoxyphenyl)-1H-imidazol-4-yl)amino)quinazolin-4-yl)pyrrolidine-2-carboxamide] | 100 to 1000
6 | COc1c(C(C)=O)ccc(-n2cnc(Nc3nc(N4CCC[C@H]4CO)nn4cccc34)c2)c1OC [Compound 212g, (S)-1-(4-(4-((2-(2-(hydroxymethyl)pyrrolidin-1-yl)pyrrolo[2,1-f][1,2,4]triazin-4-yl)amino)-1H-imidazol-1-yl)-2,3-dimethoxyphenyl)ethanone] | < 100
7 | COc1cc(-n2cnc(Nc3nc4c(c(N5CCC[C@H]5C(N)=O)n3)CN(Cc3ccccc3)CC4)c2)cc(OC)c1OC [Compound 213b, (S)-1-(6-benzyl-2-((1-(3,4,5-trimethoxyphenyl)-1H-imidazol-4-yl)amino)-5,6,7,8-tetrahydropyrido[4,3-d]pyrimidin-4-yl)pyrrolidine-2-carboxamide] | < 100
8 | COc1cc(-n2cnc(Nc3nc(N4C[C@H](O)C[C@H]4CO)c4cccn4n3)c2)cc(OC)c1OC [Compound 214b, (3R,5S)-5-(hydroxymethyl)-1-(2-((1-(3,4,5-trimethoxyphenyl)-1H-imidazol-4-yl)amino)pyrrolo[2,1-f][1,2,4]triazin-4-yl)pyrrolidin-3-ol] | < 100
9 | COc1cc(-n2cnc(Nc3nc4c(c(N5CCC[C@H]5CO)n3)CCN(Cc3ccc(C(F)(F)F)cc3)C4)c2)cc(OC)c1OC [Compound 215a, (S)-(1-(7-(4-(trifluoromethyl)benzyl)-2-((1-(3,4,5-trimethoxyphenyl)-1H-imidazol-4-yl)amino)-5,6,7,8-tetrahydropyrido[3,4-d]pyrimidin-4-yl)pyrrolidin-2-yl)methanol] | < 100
10 | COc1cc(-n2cnc(Nc3nc4c(c(N5CCC[C@H]5CO)n3)CCN(Cc3cccnc3)C4)c2)cc(OC)c1OC [Compound 216a, (S)-(1-(7-(pyridin-3-ylmethyl)-2-((1-(3,4,5-trimethoxyphenyl)-1H-imidazol-4-yl)amino)-5,6,7,8-tetrahydropyrido[3,4-d]pyrimidin-4-yl)pyrrolidin-2-yl)methanol] | < 100
11 | COc1cc(-n2cnc(Nc3nc4c(c(N5CCC[C@H]5CO)n3)CCN(Cc3cccc(OC(F)(F)F)c3)C4)c2)cc(OC)c1OC [Compound 217a, (S)-(1-(7-(3-(trifluoromethoxy)benzyl)-2-((1-(3,4,5-trimethoxyphenyl)-1H-imidazol-4-yl)amino)-5,6,7,8-tetrahydropyrido[3,4-d]pyrimidin-4-yl)pyrrolidin-2-yl)methanol] | < 100
12 | COc1cc(-n2cnc(Nc3nc4c(c(N5CCC[C@H]5CO)n3)CCN(CC(N)=O)C4)c2)cc(OC)c1OC [Compound 218a, (S)-2-(4-(2-(hydroxymethyl)pyrrolidin-1-yl)-2-((1-(3,4,5-trimethoxyphenyl)-1H-imidazol-4-yl)amino)-5,6-dihydropyrido[3,4-d]pyrimidin-7(8H)-yl)acetamide] | < 100
13 | COc1cc(-n2cnc(Nc3nc4c(c(N5CCC[C@H]5CO)n3)CCN(Cc3ccc(C#N)cc3)C4)c2)cc(OC)c1OC [Compound 219a, (S)-4-((4-(2-(hydroxymethyl)pyrrolidin-1-yl)-2-((1-(3,4,5-trimethoxyphenyl)-1H-imidazol-4-yl)amino)-5,6-dihydropyrido[3,4-d]pyrimidin-7(8H)-yl)methyl)benzonitrile] | < 100
14 | COc1cc(-n2cnc(Nc3nc4c(c(N5CCC[C@H]5CO)n3)CCN(Cc3cccc(C#N)c3)C4)c2)cc(OC)c1OC [Compound 220a, (S)-3-((4-(2-(hydroxymethyl)pyrrolidin-1-yl)-2-((1-(3,4,5-trimethoxyphenyl)-1H-imidazol-4-yl)amino)-5,6-dihydropyrido[3,4-d]pyrimidin-7(8H)-yl)methyl)benzonitrile] | < 100
15 | COc1cc2nc(Nc3cn(-c4cc(OC)c(OC)c(OC)c4)cn3)nc(N3CCC[C@H]3CO)c2cc1OC [Compound 221c, (S)-(1-(6,7-dimethoxy-2-((1-(3,4,5-trimethoxyphenyl)-1H-imidazol-4-yl)amino)quinazolin-4-yl)pyrrolidin-2-yl)methanol] | < 100
16 | COc1cc(-n2cnc(Nc3nc(N4CCC[C@H]4C(C)(C)O)c4cccn4n3)c2)cc(OC)c1OC [Compound 222b, (S)-2-(1-(2-((1-(3,4,5-trimethoxyphenyl)-1H-imidazol-4-yl)amino)pyrrolo[2,1-f][1,2,4]triazin-4-yl)pyrrolidin-2-yl)propan-2-ol] | < 100
17 | COc1cc(-n2cnc(Nc3nc(N4CC(F)(F)C[C@H]4CO)c4cccn4n3)c2)cc(OC)c1OC [Compound 223b, (S)-(4,4-difluoro-1-(2-((1-(3,4,5-trimethoxyphenyl)-1H-imidazol-4-yl)amino)pyrrolo[2,1-f][1,2,4]triazin-4-yl)pyrrolidin-2-yl)methanol] | < 100
18 | COc1cc(-n2cnc(Nc3nc4c(c(N5CCCC5)n3)CN(Cc3ccccc3)CC4)c2)cc(OC)c1OC [Compound 224b, 6-benzyl-4-(pyrrolidin-1-yl)-N-(1-(3,4,5-trimethoxyphenyl)-1H-imidazol-4-yl)-5,6,7,8-tetrahydropyrido[4,3-d]pyrimidin-2-amine] | < 100
19 | COc1cc(-n2cnc(Nc3nc4c(c(N5CCCC5)n3)CCN(Cc3ccccc3)C4)c2)cc(OC)c1OC [Compound 225b, 7-benzyl-4-(pyrrolidin-1-yl)-N-(1-(3,4,5-trimethoxyphenyl)-1H-imidazol-4-yl)-5,6,7,8-tetrahydropyrido[3,4-d]pyrimidin-2-amine] | < 100
20 | COc1cc(-n2cnc(Nc3nc4c(c(N5CCC[C@H]5CO)n3)CCCC4)c2)cc(OC)c1OC [Compound 226c, (S)-(1-(2-((1-(3,4,5-trimethoxyphenyl)-1H-imidazol-4-yl)amino)-5,6,7,8-tetrahydroquinazolin-4-yl)pyrrolidin-2-yl)methanol] | < 100

Other lines, results leading:

Row | IC50 [nM] | SMILES
21 | < 100 | COc1cc(-n2cnc(Nc3nc(N4CCCC4)nc4scnc34)c2)cc(OC)c1OC [Compound 197a, 5-(pyrrolidin-1-yl)-N-(1-(3,4,5-trimethoxyphenyl)-1H-imidazol-4-yl)thiazolo[5,4-d]pyrimidin-7-amine]
22 | < 100 | COc1cc(-n2cnc(Nc3nc(N4CCC[C@H]4CO)c4cccc(OC(C)C)c4n3)c2)cc(OC)c1OC [Compound 200b, (S)-(1-(8-isopropoxy-2-((1-(3,4,5-trimethoxyphenyl)-1H-imidazol-4-yl)amino)quinazolin-4-yl)pyrrolidin-2-yl)methanol]
23 | < 100 | COc1cc(-n2cnc(Nc3ncc4c(n3)CCN(Cc3ccccc3)C4)c2)cc(OC)c1OC [Compound 201b, 6-benzyl-N-(1-(3,4,5-trimethoxyphenyl)-1H-imidazol-4-yl)-5,6,7,8-tetrahydropyrido[4,3-d]pyrimidin-2-amine]
24 | < 100 | COc1cc(-n2cnc(Nc3ncc4c(n3)CN(Cc3ccccc3)CC4)c2)cc(OC)c1OC [Compound 202b, 7-benzyl-N-(1-(3,4,5-trimethoxyphenyl)-1H-imidazol-4-yl)-5,6,7,8-tetrahydropyrido[3,4-d]pyrimidin-2-amine]
25 | < 100 | COc1cc(-n2cnc(Nc3nc(N4CCC[C@H]4C(F)(F)F)c4cccn4n3)c2)cc(OC)c1OC [Compound 206b, (S)-4-(2-(trifluoromethyl)pyrrolidin-1-yl)-N-(1-(3,4,5-trimethoxyphenyl)-1H-imidazol-4-yl)pyrrolo[2,1-f][1,2,4]triazin-2-amine]
26 | < 100 | COc1cc(-n2cnc(Nc3nc(N4CCCC4)c4sccc4n3)c2)cc(OC)c1OC [Compound 207b, 4-(pyrrolidin-1-yl)-N-(1-(3,4,5-trimethoxyphenyl)-1H-imidazol-4-yl)thieno[3,2-d]pyrimidin-2-amine]
27 | < 100 | COc1cc(-n2cnc(Nc3ccc4ccc(Nc5cn(-c6cc(OC)c(OC)c(OC)c6)cn5)cc4c3)c2)cc(OC)c1OC [Compound 208b, N^2,N^7-bis(1-(3,4,5-trimethoxyphenyl)-1H-imidazol-4-yl)naphthalene-2,7-diamine]
28 | < 100 | COc1cc(-n2cnc(Nc3nc(N4CC[C@@H](O)C4)c4cccn4n3)c2)cc(OC)c1OC [Compound 209b, (R)-1-(2-((1-(3,4,5-trimethoxyphenyl)-1H-imidazol-4-yl)amino)pyrrolo[2,1-f][1,2,4]triazin-4-yl)pyrrolidin-3-ol]
29 | < 100 | COc1cc(-n2cnc(Nc3nc(N4CCC[C@@H]4C(N)=O)nn4cccc34)c2)cc(OC)c1OC [Compound 210a, (R)-1-(4-((1-(3,4,5-trimethoxyphenyl)-1H-imidazol-4-yl)amino)pyrrolo[2,1-f][1,2,4]triazin-2-yl)pyrrolidine-2-carboxamide]
30 | < 100 | COc1cc(-n2cnc(Nc3nc(N4CC[C@H](O)C4)c4cccn4n3)c2)cc(OC)c1OC [Compound 211b, (S)-1-(2-((1-(3,4,5-trimethoxyphenyl)-1H-imidazol-4-yl)amino)pyrrolo[2,1-f][1,2,4]triazin-4-yl)pyrrolidin-3-ol]
